pIC50: −log10 of the molar value.
How the values were obtained:
[1] = target: RET (Homo sapiens, UniProt P07949); test: HotSpot Kinase Assay, RET
Description: (§1) Specifically, for each reaction, kinase and substrate were mixed in a pH 7.5 buffer containing 20 mM HEPES, 10 mM MgCl2, 1 mM EGTA [Ethylene glycol-bis(2-aminoethylether)-N,N,N′,N′-tetraacetic acid], 0.02% Brij35, 0.02 mg/mL BSA (Bovine Serum Albumin), 0.1 mM Na3VO4, 2 mM DTT, and 1% DMSO. Compounds were then added to each reaction mixture. After a 20-min incubation, ATP (Sigma-Aldrich) and [γ-^33P] ATP (PerkinElmer) were added at a final total concentration of 100 μM. Reactions were carried out at room temperature for 2 hours and spotted onto P81 ion exchange cellulose chromatography paper (Whatman). […] The percent remaining kinase activity relative to a vehicle-containing (DMSO) kinase reaction was calculated for each kinase/inhibitor pair. […] IC50 values were calculated using Prism 5 (GraphPad).

[2] = target: SLK/STK2 (Homo sapiens, UniProt Q9H2G2); test: HotSpot Kinase Assay, SLK/STK2
Description: as §1

[3] = target: CDK7/cyclin H (Homo sapiens, UniProt P50613); test: HotSpot Kinase Assay, CDK7/cyclin H
Description: as §1

[4] = target: FLT4 (Homo sapiens, UniProt P35916); test: HotSpot Kinase Assay, FLT4
Description: as §1

[5] = target: EPHA3 (Homo sapiens, UniProt P29320); test: HotSpot Kinase Assay, EPHA3
EPHA3, sequence (P29320 21-983): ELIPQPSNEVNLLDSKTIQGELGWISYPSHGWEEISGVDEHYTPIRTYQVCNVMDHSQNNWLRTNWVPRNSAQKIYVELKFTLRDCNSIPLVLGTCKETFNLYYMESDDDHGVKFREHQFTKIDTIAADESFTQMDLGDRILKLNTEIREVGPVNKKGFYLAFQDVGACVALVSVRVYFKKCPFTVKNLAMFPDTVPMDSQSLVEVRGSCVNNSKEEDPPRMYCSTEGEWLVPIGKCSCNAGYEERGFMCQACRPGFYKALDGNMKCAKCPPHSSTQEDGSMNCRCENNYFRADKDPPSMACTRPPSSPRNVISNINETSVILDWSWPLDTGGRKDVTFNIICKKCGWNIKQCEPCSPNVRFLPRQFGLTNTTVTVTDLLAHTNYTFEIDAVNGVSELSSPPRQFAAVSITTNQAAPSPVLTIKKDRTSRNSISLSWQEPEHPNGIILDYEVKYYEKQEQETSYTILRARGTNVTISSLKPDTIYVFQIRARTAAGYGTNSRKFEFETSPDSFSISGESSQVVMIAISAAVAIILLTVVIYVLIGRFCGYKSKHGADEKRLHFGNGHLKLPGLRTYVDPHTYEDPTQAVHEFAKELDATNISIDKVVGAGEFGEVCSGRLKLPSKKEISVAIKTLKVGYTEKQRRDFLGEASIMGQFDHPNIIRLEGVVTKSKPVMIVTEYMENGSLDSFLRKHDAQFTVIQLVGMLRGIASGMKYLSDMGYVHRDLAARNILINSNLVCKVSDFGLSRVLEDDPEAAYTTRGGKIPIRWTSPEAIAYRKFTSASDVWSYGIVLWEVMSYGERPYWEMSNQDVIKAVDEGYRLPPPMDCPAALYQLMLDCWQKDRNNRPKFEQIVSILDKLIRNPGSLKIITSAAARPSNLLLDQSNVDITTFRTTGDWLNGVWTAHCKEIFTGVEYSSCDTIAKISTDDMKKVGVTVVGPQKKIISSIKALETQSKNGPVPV
Description: as §1

[6] = target: FLT1 (Homo sapiens, UniProt P17948); test: HotSpot Kinase Assay, FLT1
Description: as §1

[7] = target: TIE2/TEK (Homo sapiens, UniProt Q02763); test: HotSpot Kinase Assay, TIE2/TEK
Description: as §1

[8] = target: DDR1 (Homo sapiens, UniProt Q08345); test: HotSpot Kinase Assay, DDR1
Description: as §1

[9] = target: LOK/STK10 (Homo sapiens, UniProt O94804); test: HotSpot Kinase Assay, LOK/STK10
LOK/STK10, sequence (O94804 whole entry): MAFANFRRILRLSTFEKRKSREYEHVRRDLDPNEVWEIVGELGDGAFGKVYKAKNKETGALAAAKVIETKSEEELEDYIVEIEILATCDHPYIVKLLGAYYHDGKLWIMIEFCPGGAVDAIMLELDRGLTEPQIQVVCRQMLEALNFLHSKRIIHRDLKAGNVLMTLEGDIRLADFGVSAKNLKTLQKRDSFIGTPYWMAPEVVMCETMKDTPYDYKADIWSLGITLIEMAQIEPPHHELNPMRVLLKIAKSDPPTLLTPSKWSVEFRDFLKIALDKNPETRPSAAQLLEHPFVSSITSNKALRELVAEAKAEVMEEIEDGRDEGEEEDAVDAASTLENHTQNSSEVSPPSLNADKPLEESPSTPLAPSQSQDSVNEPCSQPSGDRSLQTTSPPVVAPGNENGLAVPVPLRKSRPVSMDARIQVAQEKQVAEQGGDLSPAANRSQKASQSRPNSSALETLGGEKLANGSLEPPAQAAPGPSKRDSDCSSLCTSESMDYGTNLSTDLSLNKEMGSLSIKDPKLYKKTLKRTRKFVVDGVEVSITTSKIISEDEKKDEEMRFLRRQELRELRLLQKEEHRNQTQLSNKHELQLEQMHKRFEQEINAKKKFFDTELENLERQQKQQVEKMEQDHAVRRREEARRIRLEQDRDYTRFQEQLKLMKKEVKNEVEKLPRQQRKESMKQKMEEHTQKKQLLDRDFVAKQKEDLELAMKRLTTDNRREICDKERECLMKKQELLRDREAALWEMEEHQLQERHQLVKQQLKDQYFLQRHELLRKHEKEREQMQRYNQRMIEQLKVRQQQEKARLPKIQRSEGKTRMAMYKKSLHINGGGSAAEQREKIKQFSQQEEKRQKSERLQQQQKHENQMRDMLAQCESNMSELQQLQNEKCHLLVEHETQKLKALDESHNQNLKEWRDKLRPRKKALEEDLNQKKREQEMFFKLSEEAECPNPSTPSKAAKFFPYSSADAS
Description: as §1

[10] = target: PDGFβ (Homo sapiens, UniProt P09619); test: HotSpot Kinase Assay, PDGFβ
Description: as §1

[11] = target: RON/MST1R (Homo sapiens, UniProt Q04912); test: HotSpot Kinase Assay, RON/MST1R
RON/MST1R, sequence (Q04912 25-1400): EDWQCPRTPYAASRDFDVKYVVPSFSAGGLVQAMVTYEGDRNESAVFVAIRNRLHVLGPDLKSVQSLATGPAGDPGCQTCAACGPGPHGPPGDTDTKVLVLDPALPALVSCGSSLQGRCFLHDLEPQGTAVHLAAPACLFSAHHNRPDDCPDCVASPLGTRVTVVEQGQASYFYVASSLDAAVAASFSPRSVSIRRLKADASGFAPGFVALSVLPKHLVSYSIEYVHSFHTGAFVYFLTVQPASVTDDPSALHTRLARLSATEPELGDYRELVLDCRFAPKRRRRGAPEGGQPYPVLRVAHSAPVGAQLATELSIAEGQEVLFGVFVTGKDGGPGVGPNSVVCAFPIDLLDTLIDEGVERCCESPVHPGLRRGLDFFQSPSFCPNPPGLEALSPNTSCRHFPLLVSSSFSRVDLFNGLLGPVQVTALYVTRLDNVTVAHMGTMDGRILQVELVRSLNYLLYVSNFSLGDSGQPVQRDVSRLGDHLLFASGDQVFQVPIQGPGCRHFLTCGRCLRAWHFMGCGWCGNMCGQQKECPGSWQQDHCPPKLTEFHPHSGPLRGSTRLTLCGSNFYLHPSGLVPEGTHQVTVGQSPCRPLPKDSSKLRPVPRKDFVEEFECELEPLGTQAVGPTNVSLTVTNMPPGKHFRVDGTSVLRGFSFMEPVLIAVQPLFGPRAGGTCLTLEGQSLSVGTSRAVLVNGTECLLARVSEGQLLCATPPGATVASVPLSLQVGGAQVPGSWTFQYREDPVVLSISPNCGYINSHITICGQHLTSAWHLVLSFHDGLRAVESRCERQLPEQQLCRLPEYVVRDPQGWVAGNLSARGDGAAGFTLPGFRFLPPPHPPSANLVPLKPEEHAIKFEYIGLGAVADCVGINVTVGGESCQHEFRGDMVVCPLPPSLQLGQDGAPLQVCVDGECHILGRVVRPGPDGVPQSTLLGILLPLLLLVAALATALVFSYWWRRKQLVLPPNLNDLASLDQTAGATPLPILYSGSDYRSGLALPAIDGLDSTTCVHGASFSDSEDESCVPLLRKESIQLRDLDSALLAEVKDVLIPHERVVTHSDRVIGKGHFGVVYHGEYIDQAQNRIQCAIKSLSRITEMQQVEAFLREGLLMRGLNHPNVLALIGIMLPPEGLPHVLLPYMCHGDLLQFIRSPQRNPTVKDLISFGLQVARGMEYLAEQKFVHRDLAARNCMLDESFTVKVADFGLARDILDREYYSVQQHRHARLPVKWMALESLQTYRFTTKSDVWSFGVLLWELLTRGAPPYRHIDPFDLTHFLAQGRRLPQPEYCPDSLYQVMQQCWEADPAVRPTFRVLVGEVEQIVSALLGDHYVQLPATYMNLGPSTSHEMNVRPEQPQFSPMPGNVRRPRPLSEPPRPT
Description: as §1

[12] = target: TRKA (Homo sapiens, UniProt P04629); test: HotSpot Kinase Assay, TRKA
TRKA, sequence (P04629 33-796): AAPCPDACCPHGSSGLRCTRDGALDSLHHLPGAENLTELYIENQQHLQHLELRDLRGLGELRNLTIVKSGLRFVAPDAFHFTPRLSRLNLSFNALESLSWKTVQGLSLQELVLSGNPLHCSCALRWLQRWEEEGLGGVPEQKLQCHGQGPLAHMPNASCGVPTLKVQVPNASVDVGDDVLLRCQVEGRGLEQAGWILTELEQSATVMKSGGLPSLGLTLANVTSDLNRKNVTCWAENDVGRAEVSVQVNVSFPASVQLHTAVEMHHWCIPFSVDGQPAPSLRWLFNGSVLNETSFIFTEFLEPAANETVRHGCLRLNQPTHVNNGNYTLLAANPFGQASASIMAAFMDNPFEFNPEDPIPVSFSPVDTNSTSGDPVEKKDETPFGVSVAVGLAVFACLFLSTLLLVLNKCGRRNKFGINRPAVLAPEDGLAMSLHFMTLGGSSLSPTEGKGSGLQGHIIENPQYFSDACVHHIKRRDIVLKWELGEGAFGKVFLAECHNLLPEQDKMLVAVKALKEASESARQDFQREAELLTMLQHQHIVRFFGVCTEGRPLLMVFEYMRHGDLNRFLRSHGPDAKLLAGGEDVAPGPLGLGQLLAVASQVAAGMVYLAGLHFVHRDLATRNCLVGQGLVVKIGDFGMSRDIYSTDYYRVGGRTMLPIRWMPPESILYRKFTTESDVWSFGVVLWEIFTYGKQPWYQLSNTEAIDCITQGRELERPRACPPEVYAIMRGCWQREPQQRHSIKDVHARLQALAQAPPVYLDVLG
Description: as §1

[13] = target: T1, TYRO3/SKY (Homo sapiens, UniProt Q06418); test: HotSpot Kinase Assay, TYRO3/SKY
T1 sequence (Q06418 41-890): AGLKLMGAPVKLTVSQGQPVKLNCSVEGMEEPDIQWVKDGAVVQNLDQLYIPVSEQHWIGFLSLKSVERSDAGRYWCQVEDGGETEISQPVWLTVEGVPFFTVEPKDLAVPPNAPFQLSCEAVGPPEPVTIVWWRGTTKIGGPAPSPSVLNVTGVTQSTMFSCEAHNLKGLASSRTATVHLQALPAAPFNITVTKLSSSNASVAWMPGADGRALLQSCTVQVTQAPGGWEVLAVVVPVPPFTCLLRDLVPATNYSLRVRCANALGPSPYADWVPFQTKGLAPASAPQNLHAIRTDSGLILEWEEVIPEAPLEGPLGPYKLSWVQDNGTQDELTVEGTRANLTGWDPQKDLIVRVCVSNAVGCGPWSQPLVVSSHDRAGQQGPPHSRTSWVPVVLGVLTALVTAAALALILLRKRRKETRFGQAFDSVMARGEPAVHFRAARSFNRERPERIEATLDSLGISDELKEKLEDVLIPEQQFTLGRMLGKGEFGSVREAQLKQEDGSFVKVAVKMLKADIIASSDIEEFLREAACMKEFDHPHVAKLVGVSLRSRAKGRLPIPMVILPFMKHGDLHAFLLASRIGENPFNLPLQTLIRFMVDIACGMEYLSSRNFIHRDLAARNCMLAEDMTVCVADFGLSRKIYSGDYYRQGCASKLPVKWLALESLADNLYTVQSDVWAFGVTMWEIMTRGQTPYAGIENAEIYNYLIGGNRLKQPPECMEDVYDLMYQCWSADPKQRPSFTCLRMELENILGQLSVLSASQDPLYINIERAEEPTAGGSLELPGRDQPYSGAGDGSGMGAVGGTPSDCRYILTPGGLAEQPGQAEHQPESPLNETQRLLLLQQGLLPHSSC

[14] = target: T2, AXL (Homo sapiens, UniProt P30530); test: HotSpot Kinase Assay, AXL
T2 sequence (P30530 26-894): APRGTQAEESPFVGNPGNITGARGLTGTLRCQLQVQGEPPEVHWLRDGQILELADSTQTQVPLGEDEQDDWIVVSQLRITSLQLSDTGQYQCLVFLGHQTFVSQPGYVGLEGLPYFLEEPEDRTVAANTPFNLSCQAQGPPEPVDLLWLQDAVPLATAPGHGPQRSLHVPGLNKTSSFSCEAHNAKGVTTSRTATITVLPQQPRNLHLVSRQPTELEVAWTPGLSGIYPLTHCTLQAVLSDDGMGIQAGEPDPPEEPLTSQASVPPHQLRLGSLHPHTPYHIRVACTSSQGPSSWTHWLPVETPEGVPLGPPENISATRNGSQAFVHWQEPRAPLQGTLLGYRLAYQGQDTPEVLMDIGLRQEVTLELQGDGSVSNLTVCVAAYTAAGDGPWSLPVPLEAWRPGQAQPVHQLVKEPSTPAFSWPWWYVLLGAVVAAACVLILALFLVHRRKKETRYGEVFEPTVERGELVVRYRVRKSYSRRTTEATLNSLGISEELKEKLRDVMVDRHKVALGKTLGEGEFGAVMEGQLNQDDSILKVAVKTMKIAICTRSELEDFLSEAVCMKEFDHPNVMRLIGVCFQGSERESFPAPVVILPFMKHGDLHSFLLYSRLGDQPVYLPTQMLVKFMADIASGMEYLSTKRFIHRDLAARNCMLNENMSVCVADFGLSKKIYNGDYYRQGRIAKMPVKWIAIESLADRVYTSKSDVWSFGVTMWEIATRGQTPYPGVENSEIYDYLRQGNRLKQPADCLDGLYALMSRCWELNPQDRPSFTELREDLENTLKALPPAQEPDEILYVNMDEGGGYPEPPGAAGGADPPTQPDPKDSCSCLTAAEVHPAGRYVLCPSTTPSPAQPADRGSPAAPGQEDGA
Description: as §1

[15] = target: EPHA1 (Homo sapiens, UniProt P21709); test: HotSpot Kinase Assay, EPHA1
EPHA1, sequence (P21709 26-976): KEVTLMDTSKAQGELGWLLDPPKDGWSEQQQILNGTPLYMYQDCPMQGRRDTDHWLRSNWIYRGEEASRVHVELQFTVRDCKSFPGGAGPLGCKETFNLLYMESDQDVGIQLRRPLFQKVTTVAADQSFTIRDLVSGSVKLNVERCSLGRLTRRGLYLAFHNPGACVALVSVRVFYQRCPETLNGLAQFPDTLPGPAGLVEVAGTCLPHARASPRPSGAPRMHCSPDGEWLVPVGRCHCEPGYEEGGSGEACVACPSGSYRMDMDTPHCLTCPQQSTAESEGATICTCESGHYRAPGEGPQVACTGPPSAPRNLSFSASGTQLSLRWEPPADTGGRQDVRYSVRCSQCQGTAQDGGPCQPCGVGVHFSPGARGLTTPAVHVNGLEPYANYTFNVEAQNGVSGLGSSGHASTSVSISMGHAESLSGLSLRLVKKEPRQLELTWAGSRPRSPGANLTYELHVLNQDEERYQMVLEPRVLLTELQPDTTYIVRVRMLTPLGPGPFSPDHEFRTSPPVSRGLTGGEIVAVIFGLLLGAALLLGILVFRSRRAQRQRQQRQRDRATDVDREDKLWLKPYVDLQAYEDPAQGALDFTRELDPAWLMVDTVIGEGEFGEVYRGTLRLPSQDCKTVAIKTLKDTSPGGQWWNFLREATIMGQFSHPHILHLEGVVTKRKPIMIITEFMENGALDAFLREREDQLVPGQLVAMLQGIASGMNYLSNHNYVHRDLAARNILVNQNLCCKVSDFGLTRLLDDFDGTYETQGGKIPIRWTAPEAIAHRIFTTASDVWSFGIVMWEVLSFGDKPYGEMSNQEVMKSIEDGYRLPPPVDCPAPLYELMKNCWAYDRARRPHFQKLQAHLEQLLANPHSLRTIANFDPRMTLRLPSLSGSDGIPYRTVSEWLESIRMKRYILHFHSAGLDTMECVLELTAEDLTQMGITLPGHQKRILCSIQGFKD
Description: as §1

[16] = target: KHS/MAP4K5 (Homo sapiens, UniProt Q9Y4K4); test: HotSpot Kinase Assay, KHS/MAP4K5
Description: as §1

[17] = target: EPHB4 (Homo sapiens, UniProt P54760); test: HotSpot Kinase Assay, EPHB4
Description: as §1

`COc1cc2c(Oc3ccc(NC(=O)C4(C(=O)Nc5ccc(F)cc5)CC4)cc3)ccnc2cc1OC(=O)N1CCN(C)CC1` [Compound 1-10] was tested, and the pIC50 [1] was 6.00 to 7.00, the pIC50 [2] was under 6.00 and the pIC50 [3] was under 6.00. It also gave a pIC50 [4] of 6.00 to 7.00, a pIC50 [5] of 6.00 to 7.00 and a pIC50 [6] of 6.00 to 7.00. For the same compound, the pIC50 [7] was under 6.00, the pIC50 [8] was over 7.00 and the pIC50 [9] was 6.00 to 7.00. For the same compound, the pIC50 [10] was 6.00 to 7.00, the pIC50 [11] was under 6.00 and the pIC50 [12] was over 7.00. It also gave a pIC50 [13] of 6.00 to 7.00, a pIC50 [14] of over 7.00 and a pIC50 [15] of under 6.00. The pIC50 [16] was under 6.00 and the pIC50 [17] was 6.00 to 7.00.

Reference: patent US11358949B2, “Carbamate and urea compounds as multikinase inhibitors” (ANGEX PHARMACEUTICAL, INC., priority 2017, dated 2022)
